5 molecules from ChEMBL document CHEMBL5291721, “A preclinical secondary pharmacology resource illuminates target-adverse drug reaction associations of marketed drugs” (Nat Commun, 2023) can be followed below.

Where “and” joins values, the source holds several entries; their conditions need not be identical. Identical values can stand only once. Some results are limits rather than exact numbers.

Assay [1] deals with Estrogen receptor beta (Homo sapiens, UniProt Q92731).
The target in assay [2] is Gamma-aminobutyric acid type B receptor subunit 1 (Homo sapiens, UniProt Q9UBS5).
Gamma-aminobutyric acid type B receptor subunit 1, sequence (Q9UBS5 whole entry): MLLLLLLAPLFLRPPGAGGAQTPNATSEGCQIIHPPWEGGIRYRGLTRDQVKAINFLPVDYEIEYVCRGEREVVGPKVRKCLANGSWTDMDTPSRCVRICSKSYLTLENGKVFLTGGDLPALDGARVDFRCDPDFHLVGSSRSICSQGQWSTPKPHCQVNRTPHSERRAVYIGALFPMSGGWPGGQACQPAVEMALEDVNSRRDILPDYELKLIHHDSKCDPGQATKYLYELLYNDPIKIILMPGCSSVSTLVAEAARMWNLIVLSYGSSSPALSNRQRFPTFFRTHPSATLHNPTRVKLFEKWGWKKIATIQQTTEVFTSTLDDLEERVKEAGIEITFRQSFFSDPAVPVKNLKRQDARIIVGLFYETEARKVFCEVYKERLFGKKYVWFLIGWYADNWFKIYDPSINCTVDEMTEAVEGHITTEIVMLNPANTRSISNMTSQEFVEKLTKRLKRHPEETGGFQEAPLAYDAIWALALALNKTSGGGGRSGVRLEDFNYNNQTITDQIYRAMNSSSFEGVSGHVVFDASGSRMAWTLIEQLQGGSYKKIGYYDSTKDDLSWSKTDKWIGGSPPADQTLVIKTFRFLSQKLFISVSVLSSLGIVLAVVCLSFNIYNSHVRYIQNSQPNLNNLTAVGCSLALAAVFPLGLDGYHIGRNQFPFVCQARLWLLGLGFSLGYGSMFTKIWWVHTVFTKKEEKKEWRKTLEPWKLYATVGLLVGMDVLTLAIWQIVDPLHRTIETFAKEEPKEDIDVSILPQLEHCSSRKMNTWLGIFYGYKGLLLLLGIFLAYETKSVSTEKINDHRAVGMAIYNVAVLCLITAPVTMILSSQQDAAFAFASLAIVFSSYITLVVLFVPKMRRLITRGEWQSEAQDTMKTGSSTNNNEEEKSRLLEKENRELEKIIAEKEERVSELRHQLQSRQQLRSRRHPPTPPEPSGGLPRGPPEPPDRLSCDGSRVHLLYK
Assay [3] deals with Histamine H1 receptor (Homo sapiens, UniProt P35367). The class given is functional, cell-based.
Histamine H1 receptor, sequence (P35367 whole entry): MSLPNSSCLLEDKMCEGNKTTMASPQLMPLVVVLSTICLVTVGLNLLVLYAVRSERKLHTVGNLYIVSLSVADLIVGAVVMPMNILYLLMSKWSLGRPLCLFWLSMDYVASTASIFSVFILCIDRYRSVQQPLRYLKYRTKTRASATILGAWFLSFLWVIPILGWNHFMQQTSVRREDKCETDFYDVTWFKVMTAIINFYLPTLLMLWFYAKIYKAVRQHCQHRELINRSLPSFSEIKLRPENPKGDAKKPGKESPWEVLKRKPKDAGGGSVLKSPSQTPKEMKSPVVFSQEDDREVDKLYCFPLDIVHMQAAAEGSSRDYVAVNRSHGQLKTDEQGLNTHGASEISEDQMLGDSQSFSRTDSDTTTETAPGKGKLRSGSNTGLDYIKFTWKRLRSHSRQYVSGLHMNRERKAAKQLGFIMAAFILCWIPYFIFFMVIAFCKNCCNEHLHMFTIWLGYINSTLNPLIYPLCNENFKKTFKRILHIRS
Assay [4] concerns the target T1, Glucocorticoid receptor (Homo sapiens, UniProt P04150).
T1 sequence (P04150 whole entry): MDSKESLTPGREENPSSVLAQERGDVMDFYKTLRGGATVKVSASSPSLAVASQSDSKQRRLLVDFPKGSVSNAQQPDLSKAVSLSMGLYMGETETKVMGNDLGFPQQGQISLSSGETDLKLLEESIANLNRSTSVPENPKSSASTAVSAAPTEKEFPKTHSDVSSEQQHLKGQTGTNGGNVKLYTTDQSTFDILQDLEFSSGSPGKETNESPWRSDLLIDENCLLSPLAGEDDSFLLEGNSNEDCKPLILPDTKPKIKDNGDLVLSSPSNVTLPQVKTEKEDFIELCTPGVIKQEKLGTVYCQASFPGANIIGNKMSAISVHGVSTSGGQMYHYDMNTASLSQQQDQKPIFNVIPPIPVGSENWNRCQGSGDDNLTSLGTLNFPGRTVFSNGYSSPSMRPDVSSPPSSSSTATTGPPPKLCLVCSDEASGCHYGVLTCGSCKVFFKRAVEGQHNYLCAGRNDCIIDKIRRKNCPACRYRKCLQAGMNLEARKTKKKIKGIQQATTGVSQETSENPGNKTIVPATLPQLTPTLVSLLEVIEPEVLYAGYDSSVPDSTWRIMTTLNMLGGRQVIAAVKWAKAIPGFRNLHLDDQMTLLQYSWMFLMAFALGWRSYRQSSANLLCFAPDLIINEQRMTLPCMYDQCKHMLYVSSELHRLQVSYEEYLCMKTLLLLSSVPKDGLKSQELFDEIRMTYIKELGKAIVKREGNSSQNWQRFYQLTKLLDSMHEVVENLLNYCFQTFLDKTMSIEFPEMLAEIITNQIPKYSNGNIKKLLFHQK
The class given is functional.

Assay [5] has as its target T1, Glucocorticoid receptor. Format: functional. The source holds these as a separate data set.
Assay [6] deals with T2, Androgen receptor (Rattus norvegicus, UniProt P15207).
T2 sequence (P15207 whole entry): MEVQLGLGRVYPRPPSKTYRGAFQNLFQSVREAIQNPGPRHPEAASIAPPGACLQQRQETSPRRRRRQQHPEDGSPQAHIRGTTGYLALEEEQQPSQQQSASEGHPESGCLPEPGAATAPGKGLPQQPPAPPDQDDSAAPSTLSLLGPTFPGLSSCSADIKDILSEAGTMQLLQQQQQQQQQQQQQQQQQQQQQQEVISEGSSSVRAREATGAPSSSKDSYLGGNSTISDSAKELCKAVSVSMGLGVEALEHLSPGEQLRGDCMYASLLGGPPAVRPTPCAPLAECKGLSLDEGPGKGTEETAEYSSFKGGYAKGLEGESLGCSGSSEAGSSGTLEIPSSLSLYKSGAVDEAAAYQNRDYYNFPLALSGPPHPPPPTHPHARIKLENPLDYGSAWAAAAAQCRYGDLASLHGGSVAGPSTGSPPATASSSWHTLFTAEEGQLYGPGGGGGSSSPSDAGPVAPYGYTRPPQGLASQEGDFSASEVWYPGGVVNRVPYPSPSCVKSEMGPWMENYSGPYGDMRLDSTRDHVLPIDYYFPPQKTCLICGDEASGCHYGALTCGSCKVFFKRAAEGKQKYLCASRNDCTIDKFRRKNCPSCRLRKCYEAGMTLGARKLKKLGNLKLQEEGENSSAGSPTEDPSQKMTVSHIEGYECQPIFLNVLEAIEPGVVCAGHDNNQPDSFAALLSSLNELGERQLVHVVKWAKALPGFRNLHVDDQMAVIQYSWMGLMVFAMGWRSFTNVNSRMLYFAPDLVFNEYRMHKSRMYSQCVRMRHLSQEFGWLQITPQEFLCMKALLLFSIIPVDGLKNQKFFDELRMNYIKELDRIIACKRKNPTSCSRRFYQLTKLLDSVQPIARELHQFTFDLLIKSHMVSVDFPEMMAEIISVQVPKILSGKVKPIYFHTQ
The class given is functional.

The target in assay [7] is Sodium channel protein type 5 subunit alpha (Homo sapiens, UniProt Q14524). Format: functional, cell-based.
Sodium channel protein type 5 subunit alpha, sequence (Q14524 whole entry): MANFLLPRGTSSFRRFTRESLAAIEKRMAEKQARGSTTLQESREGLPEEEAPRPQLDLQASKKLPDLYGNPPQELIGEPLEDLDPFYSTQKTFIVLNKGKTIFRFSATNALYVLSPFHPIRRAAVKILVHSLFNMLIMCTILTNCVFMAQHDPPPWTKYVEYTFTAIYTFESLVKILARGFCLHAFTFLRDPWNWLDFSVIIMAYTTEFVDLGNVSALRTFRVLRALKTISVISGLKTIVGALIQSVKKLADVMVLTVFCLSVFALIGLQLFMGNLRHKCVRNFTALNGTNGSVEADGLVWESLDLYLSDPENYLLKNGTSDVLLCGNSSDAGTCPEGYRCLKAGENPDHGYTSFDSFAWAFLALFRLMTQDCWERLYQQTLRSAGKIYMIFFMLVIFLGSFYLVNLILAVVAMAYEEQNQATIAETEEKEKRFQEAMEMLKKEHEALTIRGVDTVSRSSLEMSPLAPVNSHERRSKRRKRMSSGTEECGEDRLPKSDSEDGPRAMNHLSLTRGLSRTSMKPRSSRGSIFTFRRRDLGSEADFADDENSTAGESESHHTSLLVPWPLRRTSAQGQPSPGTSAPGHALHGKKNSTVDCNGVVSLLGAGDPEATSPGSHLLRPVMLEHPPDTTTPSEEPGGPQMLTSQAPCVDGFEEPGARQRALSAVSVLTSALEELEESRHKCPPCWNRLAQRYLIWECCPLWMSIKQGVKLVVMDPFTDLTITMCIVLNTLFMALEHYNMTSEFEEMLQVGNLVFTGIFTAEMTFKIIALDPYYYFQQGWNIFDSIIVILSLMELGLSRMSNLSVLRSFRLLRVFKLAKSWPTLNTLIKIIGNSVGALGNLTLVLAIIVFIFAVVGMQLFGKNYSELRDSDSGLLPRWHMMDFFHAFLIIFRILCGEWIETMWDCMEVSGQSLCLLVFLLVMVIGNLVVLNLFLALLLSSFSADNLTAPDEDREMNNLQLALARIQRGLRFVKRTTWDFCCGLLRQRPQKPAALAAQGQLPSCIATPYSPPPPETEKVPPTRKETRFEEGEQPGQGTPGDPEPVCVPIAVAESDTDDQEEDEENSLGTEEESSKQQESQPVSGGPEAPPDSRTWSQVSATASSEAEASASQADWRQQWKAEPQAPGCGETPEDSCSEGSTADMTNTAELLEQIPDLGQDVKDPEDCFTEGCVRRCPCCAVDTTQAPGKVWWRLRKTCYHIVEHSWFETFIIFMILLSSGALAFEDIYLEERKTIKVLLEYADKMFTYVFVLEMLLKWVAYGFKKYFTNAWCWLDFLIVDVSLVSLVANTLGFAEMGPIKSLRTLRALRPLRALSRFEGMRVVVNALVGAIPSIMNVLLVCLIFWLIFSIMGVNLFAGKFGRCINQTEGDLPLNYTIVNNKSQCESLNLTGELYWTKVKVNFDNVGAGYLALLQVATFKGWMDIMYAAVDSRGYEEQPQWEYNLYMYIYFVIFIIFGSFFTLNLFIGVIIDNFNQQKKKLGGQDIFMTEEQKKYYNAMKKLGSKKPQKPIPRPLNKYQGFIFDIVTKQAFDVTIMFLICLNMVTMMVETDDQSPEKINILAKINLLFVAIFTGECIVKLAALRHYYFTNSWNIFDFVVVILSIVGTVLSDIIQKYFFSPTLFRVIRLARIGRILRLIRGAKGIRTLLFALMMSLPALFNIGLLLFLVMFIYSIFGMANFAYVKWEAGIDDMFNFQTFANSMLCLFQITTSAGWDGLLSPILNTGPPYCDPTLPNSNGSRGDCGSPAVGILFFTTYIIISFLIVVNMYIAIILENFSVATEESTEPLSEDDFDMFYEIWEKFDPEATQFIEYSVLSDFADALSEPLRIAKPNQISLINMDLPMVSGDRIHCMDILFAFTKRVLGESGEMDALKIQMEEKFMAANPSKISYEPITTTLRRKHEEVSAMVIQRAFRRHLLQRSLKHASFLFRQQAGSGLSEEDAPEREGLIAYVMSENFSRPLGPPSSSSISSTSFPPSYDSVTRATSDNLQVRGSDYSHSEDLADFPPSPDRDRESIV
Assay [8] has as its target Cannabinoid receptor 1 (Homo sapiens, UniProt P21554). Format: functional.
Assay [9] concerns the target 5-hydroxytryptamine receptor 6 (Homo sapiens, UniProt P50406).
The target of assay [10] is T3, Alpha-1A adrenergic receptor (Homo sapiens, UniProt P35348).
T3 sequence (P35348 whole entry): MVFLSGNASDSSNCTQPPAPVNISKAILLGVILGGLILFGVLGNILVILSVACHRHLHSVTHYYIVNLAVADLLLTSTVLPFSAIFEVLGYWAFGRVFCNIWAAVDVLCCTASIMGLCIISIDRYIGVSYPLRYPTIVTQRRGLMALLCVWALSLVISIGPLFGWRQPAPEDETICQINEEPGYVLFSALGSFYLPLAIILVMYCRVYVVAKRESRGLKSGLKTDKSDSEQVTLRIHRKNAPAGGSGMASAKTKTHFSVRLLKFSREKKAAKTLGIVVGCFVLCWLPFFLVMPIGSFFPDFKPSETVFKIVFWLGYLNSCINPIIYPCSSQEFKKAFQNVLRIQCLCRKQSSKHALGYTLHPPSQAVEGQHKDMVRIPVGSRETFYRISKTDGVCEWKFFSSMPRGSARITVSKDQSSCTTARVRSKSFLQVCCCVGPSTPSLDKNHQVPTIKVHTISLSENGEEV
Note: assay procedure not described here.

5-hydroxytryptamine receptor 6, sequence (P50406 whole entry): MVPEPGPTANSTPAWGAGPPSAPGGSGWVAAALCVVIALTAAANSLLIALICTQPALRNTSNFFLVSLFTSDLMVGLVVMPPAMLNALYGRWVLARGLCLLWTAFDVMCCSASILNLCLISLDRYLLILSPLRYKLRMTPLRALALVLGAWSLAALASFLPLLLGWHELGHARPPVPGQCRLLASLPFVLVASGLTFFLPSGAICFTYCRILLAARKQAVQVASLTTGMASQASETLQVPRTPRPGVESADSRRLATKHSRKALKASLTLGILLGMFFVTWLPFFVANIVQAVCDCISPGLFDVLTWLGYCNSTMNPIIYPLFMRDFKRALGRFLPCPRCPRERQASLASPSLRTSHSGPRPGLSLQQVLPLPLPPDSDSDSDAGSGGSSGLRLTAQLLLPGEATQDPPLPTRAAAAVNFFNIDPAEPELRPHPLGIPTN
Cannabinoid receptor 1, sequence (P21554 whole entry): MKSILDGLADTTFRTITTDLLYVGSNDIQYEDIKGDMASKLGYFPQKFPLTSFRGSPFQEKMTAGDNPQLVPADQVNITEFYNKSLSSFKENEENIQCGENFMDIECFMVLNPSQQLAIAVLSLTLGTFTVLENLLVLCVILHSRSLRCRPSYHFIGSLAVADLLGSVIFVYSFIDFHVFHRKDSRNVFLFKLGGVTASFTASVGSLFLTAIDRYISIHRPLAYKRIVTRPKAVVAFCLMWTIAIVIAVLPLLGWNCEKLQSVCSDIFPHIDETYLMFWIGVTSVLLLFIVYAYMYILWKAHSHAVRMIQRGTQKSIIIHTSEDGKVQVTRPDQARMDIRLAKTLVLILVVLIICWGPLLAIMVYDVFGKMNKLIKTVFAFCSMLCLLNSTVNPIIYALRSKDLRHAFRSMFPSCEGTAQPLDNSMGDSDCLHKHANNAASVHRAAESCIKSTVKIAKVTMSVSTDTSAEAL
Estrogen receptor beta, sequence (Q92731 whole entry): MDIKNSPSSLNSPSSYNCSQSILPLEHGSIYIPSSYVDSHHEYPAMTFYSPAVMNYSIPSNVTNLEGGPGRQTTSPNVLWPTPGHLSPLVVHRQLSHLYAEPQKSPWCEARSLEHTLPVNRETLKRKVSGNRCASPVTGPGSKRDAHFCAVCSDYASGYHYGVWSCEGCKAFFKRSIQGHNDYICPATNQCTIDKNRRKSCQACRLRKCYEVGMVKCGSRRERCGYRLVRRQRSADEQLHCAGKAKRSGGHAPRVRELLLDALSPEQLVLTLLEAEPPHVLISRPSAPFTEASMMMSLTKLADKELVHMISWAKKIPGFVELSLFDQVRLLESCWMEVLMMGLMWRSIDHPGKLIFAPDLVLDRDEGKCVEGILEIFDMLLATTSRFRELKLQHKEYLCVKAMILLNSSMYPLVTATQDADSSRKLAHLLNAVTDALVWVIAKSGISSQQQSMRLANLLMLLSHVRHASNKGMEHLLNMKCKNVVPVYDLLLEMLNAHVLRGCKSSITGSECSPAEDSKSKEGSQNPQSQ

The term AC50 denotes the concentration giving half of the maximal activity seen. The low end stands for activity at low concentration, the high end for activity only at high concentration. `COc1ccccc1Oc1c(NS(=O)(=O)c2ccc(C(C)(C)C)cc2)nc(-c2ncccn2)nc1OCCO` [BOSENTAN]: the AC50 in assay [1] was > 30 µM; in assay [2], > 10 µM; in [3], > 30 µM; in assay [4] it was > 30 µM; in assay [5] it was > 30 µM.

For the molecule `COc1cc2nccc(Oc3ccc(NC(=O)C4(C(=O)Nc5ccc(F)cc5)CC4)cc3)c2cc1OC` [CABOZANTINIB], the AC50 was > 30 µM in assay [6], > 30 µM in [4], > 30 µM in [5] and > 3 µM in [7].

For the molecule `CC(C)Cc1ccc(C(C)C(=O)O)cc1` (stereo not drawn) [IBUPROFEN], the AC50 was > 10 µM in assay [8]; > 30 µM in [1]; > 10 µM in assay [2]; > 10 µM in assay [9]; > 30 µM in [4]; > 30 µM in assay [5]. For the same molecule, the half-maximal activity concentration (AC50) in assay [10] is > 10 µM.

Take `N[C@@H](CC(=O)N1CCn2c(nnc2C(F)(F)F)C1)Cc1cc(F)c(F)cc1F` [SITAGLIPTIN]: the AC50 is > 30 µM in assay [6]; > 10 µM in assay [8]; > 10 µM in assay [2]; > 10 µM in assay [9]; > 30 µM in assay [4]; > 30 µM in assay [5]. Moreover, the AC50 in assay [7] was > 150 µM; in assay [10] it was > 10 µM.

Consider `C=CC[C@@H]1/C=C(\C)C[C@H](C)C[C@H](OC)[C@H]2O[C@@](O)(C(=O)C(=O)N3CCCC[C@H]3C(=O)O[C@H](/C(C)=C/[C@@H]3CC[C@@H](O)[C@H](OC)C3)[C@H](C)[C@@H](O)CC1=O)[C@H](C)C[C@@H]2OC` [TACROLIMUS ANHYDROUS], for which the AC50 in [6] was > 30 µM; in assay [8], > 10 µM; in assay [1], > 30 µM; in assay [2], > 10 µM; in assay [9], > 10 µM; in [4], > 30 µM. Moreover, the AC50 in assay [5] was > 30 µM; in assay [7], 45 µM and > 30 µM; in assay [10] it was > 10 µM.
